From US10426841B2, “Combination of drugs with protein-binding prodrugs” (VERGELL MEDICAL S.A., priority 2010, dated 2019)

Tests used:
[1] = tested on: human ovarian cancer xenografts (A2780); assay: Antitumor efficacy and tolerability in the ovarian carcinoma A2780 xenograft model; settings: for toxic death: 8 mice per group; for RTV day 30 (relative tumor volume): * significant to Doxorubicin; for antitumor efficacy (in words): doxorubicin 2×8 mg/kg up to day 30
Method: In order to evaluate the in vivo antitumor efficacy of a combination of doxorubicin with DOXO-EMCH in tumor-bearing mice, a direct comparison was made with a group treated with doxorubicin (2×8 mg/kg body weight) or DOXO-EMCH (3×24 mg/kg body weight doxorubicin equivalents) at their respective MTDs. For the combination, a lower dose of doxorubicin (3×4 mg/kg body weight) was combined with a lower dose of DOXO-EMCH (3×12 mg/kg body weight doxorubicin equivalents) wherein the DOXO-EMCH was administered 6 h prior to doxorubicin on the respective days of administration (cf. Table 1).
Experimental Procedure. […] For in vivo testing, female NMRI: nu/nu mice (Taconic, Denmark) were used. The mice were held in individually ventilaged cages (IVC) under sterile and standardized environmental conditions (25±2° C. room temperature, 50±10% relative humidity, 12 hour light-dark-rhythm). They received autoclaved food and bedding (ssniff, Soest, Germany) and acidified (pH 4.0) drinking water ad libitum. A2780 tumor fragments were transplanted subcutaneously (s.c.) into the left flank region of anaesthetized mice (40 mg/kg i.p. Radenarkon, Asta Medica, Frankfurt, Germany) on day 0. Mice were randomly distributed to the experimental groups (8 mice per group). When the tumors were grown to a palpable size, treatment was initiated. Mice were treated intravenously (i.v.) with either glucose phosphate buffer (10 mM sodium phosphate, 5% D-(+)-glucose, pH 5.8), doxorubicin (2×8 mg/kg body weight), or DOXO-EMCH (3×24 mg/kg body weight doxorubicin equivalents), or a combination of DOXO-EMCH (3×12 mg/kg body weight doxorubicin equivalents) and doxorubicin (3×4 mg/kg body weight) with a 6 hour interval on the day of administration. DOXO-EMCH was dissolved in 10 mM sodium phosphate, 5% D-(+)-glucose, pH 5.8. The compounds were injected intravenously at weekly intervals on days 6 and 13 and on days 6, 13 and 20 for the remaining compounds. The injection volume was 0.2 ml/20 g body weight. Tumor size was measured twice weekly with a caliper-like instrument in two dimensions. Individual tumor volumes (V) were calculated by the formula V=(length×[width]2)/2 and related to the values on the first day of treatment (relative tumor volume, RTV). Statistical analysis was performed with the U-test (Mann and Whitney) with p<0.05. The body weight of mice was determined every 3 to 4 days.

[2] = Maximum tolerated dose in nude mice; format: in vivo; settings: 2×12 mg/kg body weight
[3] = i.v., doxorubicin 8 mg/kg days 6, 13, DOXO-EMCH 24 mg/kg days 6, 13, 20, combination 4 + 12 mg/kg days 6, 13, 20
[4] = DOXO-EMCH 3×24 mg/kg, combination DOXO-EMCH 3×12 + doxorubicin 3×4 mg/kg

| Structure (SMILES) | toxic death [1, 3] | body weight loss ([1]; DOXO-EMCH 3×24 mg/kg, after day 37, some animals died or were killed) | duration of tumor remissions [1, 4] | RTV day 20 (relative tumor volume) [1, 3] | RTV day 30 (relative tumor volume) [1, 3] | BWC [%] (body weight change) ([1]; day of value in brackets in the cell, i.v., doxorubicin 8 mg/kg days 6, 13, DOXO-EMCH 24 mg/kg days 6, 13, 20, combination 4 + 12 mg/kg days 6, 13, 20) | antitumor efficacy (in words) [1, 4] | toxicity at doses higher than MTD [2] |
| --- | --- | --- | --- | --- | --- | --- | --- | --- |
| COc1cccc2c1C(=O)c1c(O)c3c(c(O)c1C2=O)CC(O)(C(CO)=NNC(=O)CCCCCN1C(=O)C=CC1=O)CC3OC1CC(N)C(O)C(C)O1 (stereo not drawn) [DOXO-EMCH, 6-maleimidocaproyl(hydrazone) derivative of doxorubicin] | 0 | over 30% | up to 37 days | 0.2 | 0.1* | −31 (d37) % | pronounced antitumor effect |  |
| COc1cccc2c1C(=O)c1c(O)c3c(c(O)c1C2=O)C[C@@](O)(C(=O)CO)C[C@@H]3O[C@H]1C[C@H](N)[C@H](O)[C@H](C)O1 [Doxorubicin, doxorubicin, reference compound] | 0 |  |  | 7.4 | 23.9 |  | moderate antitumor efficacy | unacceptable toxicity and mortality |
